In brackets after ≈: the same amount, converted by molar mass. Several values for one entry are separate records, joined by “and”; a condition that tells them apart may be missing. Equal entries are not always repeated. Where two headings read alike, the source gives them in different places. Where a SMILES comes first, the peptide text is derived from it. [ ]: non-standard residue; d: D form. NMeLeu(5-OH,4R) = CN[C@@H](C[C@@H](C)CO)C(=O)O; Phe(βR-OMe) = CO[C@H](c1ccccc1)[C@H](N)C(=O)O; Trp(1-Me) = Cn1cc(C[C@H](N)C(=O)O)c2ccccc21; NMeL = CN[C@@H](CC(C)C)C(=O)O; Pra = C#CC[C@H](N)C(=O)O
How the values were obtained:
Mtb (moxR) FNDR-M1 = assay: microbe, parasite or virus in culture; assay type: cell-based
Pseudomonas aeruginosa = assay: MIC ESKAPES panel, Pseudomonas aeruginosa; assay type: cell-based
Method: (§1) Minimum inhibitory concentration (MIC) against ESKAPES panel of Gram positive and Gram negative pathogens (Enterococcus faecium, Staphylococcus aureus, Klebsiella pneumoniae, Acinetobacter baumannii, Pseudomonas aeruginosa, Enterobacter cloacae and Salmonella typhimurium [ESKAPES panel]) were determined at the FNDR by the standard broth dilution method [CLSI, M100]. […] Mueller Hinton broth (MHB) medium was used to grow ESKAPES panel strains. The individual cultures were added as 200 μL (inoculum of 3–7 × 10^5 cfu/ml) to the respective assay plates in each well to all columns, except the media control (200 μL of medium). […] The assay plates were incubated at 37 °C, and the results were noted on the 2nd day as turbidometric readout. The clear wells indicated inhibition of growth, while the turbid wells indicated uninhibited growth.

Klebsiella pneumoniae = assay: MIC ESKAPES panel, Klebsiella pneumoniae; assay type: cell-based
Method: as §1

Msm 700084 = assay: microbe, parasite or virus in culture; assay type: cell-based
[1] = tested on: replicating Mtb H37Rv cells; assay: Resazurin growth assay, replicating Mtb H37Rv (Supplementary Fig. 2); assay type: cell-based, Mycobacterium tuberculosis; conditions: three replicate columns
[2] = target: endogenous ClpC1 in Msm #607 cells (Mycolicibacterium smegmatis, UniProt A0R574); assay type: cell-based, M. smegmatis
Mtb # 11291 = assay: microbe, parasite or virus in culture; assay type: cell-based; conditions: single well replicates
[3] = target: ClpC1-NTD substrate, M. tuberculosis ClpC1P1P2 (Mycobacterium tuberculosis, UniProt P9WPC9); assay: biochemical; assay type: biochemical; conditions: Mtb
Mtb H37Rv = assay: Minimum bactericidal concentration (MBC), Mtb H37Rv; assay type: cell-based, Mycobacterium tuberculosis; conditions: Mycobacterium tuberculosis, H37RV
[4] = target: His6-tagged ClpC1-NTD substrate, M. smegmatis ClpC1P1P2 (UniProt A0R574+P9WPC9); assay: biochemical; assay type: biochemical; conditions: for % Response: ClpC1-NTD/ClpP1P2 peak area normalized to DMSO, well replicates; for DC50: Msm
Caco-2 monolayers = assay: in vitro
In short: (§2)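 Permeability across Caco-2 monolayers was measured in both directions, apical-to-basolateral and basolateral-to-apical, in 10^-6 cm s-1. Efflux ratio = P(B−A)/P(A−B). Intrinsic permeability is the mean of P(A−B) and P(B−A).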

in vitro = conditions: human
In short: as §2

[5] = assay type: in vitro ADME, Mice
In short: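 Clearance values are expressed as % of liver blood flow, derived from first-order half-lives using the well-stirred liver model. Depletion of 1 µmol/l compound is followed by HPLC-MS/MS in NADPH-supplemented microsomes (0.5 mg/ml) at 37 °C, pH 7.5.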

Enterobacter cloacae = assay: MIC ESKAPES panel, Enterobacter cloacae; assay type: cell-based
Method: as §1

Staphylococcus aureus = assay: MIC ESKAPES panel, Staphylococcus aureus; assay type: cell-based
Method: as §1

[6] = Gram-Negative Bacteria, replicates 1-3
[7] = mean of the measurements, read-out: DC50, Mean

Chain of endogenous ClpC1 in Msm #607 cells (A0R574 whole entry): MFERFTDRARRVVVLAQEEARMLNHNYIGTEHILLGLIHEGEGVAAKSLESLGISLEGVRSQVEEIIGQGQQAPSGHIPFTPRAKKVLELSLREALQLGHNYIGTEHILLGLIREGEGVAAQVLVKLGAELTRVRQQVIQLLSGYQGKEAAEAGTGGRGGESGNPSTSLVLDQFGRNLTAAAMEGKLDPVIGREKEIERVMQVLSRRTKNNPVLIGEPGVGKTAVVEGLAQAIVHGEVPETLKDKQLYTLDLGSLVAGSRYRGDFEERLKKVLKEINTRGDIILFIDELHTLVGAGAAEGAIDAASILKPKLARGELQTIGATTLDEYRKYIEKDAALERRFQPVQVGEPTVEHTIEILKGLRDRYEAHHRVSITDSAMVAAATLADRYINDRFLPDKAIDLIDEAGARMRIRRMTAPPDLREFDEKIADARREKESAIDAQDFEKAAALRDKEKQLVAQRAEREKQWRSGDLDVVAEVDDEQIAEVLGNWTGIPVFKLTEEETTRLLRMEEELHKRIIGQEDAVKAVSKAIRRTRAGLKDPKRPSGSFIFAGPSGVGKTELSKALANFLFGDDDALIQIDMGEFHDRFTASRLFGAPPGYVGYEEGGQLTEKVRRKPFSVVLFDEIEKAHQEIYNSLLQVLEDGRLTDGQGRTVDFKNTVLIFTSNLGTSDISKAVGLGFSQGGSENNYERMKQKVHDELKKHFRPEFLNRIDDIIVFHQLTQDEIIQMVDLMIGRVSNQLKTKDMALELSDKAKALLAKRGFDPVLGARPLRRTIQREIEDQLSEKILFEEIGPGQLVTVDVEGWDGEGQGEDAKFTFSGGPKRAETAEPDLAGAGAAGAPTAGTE
Chain of His6-tagged ClpC1-NTD substrate, M. smegmatis ClpC1P1P2 (P9WPC9 1-156, looked up, natural form): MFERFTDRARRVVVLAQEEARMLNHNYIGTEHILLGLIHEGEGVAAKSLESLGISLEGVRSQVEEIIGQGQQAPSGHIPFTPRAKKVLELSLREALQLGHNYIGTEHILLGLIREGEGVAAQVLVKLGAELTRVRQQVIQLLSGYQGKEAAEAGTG
Chain of His6-tagged ClpC1-NTD substrate, M. smegmatis ClpC1P1P2 (A0R574 whole entry): as the sequence (A0R574 whole entry) above
Chain of ClpC1-NTD substrate, M. tuberculosis ClpC1P1P2 (P9WPC5 whole entry): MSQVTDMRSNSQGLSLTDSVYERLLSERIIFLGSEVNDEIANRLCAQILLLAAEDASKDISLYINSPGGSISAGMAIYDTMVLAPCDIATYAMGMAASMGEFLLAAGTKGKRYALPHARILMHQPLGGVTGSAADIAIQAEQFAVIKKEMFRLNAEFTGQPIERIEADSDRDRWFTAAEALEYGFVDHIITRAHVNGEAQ
Chain of ClpC1-NTD substrate, M. tuberculosis ClpC1P1P2 (P9WPC9 whole entry): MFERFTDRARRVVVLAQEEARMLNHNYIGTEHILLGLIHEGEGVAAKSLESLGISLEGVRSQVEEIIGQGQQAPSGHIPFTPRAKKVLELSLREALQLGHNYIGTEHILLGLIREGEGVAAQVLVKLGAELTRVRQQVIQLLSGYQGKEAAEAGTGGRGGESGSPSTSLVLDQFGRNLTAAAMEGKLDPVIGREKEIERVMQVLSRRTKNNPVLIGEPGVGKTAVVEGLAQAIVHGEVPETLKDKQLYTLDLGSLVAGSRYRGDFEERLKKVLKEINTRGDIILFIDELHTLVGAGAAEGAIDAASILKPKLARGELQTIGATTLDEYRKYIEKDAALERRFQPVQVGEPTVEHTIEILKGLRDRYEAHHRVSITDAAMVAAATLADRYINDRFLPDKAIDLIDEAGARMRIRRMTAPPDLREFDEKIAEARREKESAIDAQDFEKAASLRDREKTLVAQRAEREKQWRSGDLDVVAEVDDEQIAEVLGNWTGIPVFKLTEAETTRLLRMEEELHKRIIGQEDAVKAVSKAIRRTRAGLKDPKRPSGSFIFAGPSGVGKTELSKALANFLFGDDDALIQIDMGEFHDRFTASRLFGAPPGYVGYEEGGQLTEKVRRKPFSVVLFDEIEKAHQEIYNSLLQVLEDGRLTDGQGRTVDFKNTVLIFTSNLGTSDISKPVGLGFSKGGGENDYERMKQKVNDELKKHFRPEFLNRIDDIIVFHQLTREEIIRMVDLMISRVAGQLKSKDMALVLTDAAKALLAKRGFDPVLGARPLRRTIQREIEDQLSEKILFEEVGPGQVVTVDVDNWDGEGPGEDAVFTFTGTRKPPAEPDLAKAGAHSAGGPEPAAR
Chain of ClpC1-NTD substrate, M. tuberculosis ClpC1P1P2 (P9WPC3 whole entry, further chain): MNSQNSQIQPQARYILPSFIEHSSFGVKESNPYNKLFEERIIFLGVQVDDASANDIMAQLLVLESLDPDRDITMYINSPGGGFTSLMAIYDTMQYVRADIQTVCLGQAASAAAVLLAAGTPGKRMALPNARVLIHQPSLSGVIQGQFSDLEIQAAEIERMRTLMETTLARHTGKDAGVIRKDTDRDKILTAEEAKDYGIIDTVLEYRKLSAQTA

Work on C#CC[C@@H]1NC(=O)[C@H](CC(C)C)N(C)C(=O)[C@H](C(C)C)NC(=O)[C@H]([C@H](OC)c2ccccc2)NC(=O)[C@H](C)NC(=O)[C@H](C[C@@H](C)CO)N(C)C(=O)[C@H](Cc2cn(C)c3ccccc23)NC1=O [Compound 10] (cyclo(A[Phe(βR-OMe)]V[NMeL][Pra][Trp(1-Me)][NMeLeu(5-OH,4R)])) yielded an MIC (Mtb (moxR) FNDR-M1; M. tuberculosis FNDR-M1, single well replicates) of 1.56 µM (≈ 1.42 µg/mL), an MIC (Mtb (moxR) FNDR-M1; Mycobacterium tuberculosis, M. tuberculosis FNDR-M1, single well replicates) of 1.56 µM (≈ 1.42 µg/mL) and an MIC (Mtb (moxR) FNDR-M1; Mycobacterium tuberculosis, Mtb (moxR) FNDR-M1, mean ± SD, n = 3 well replicates) of 1.6 µM (≈ 1.46 µg/mL). For the same compound, the MIC (Pseudomonas aeruginosa; [6]) was over 50 µM, the MIC (Pseudomonas aeruginosa; Pseudomonas aeruginosa, Gram negative, n = 3 well replicates) was over 50 µM and the MIC (Pseudomonas aeruginosa; Pseudomonas aeruginosa, Gram-Negative Bacteria, replicates 1-3) was over 45.6 µg/mL. The MIC (Klebsiella pneumoniae; [6]) was over 50 µM, the MIC (Klebsiella pneumoniae; Klebsiella pneumoniae, Gram negative, n = 3 well replicates) was over 50 µM and the MIC (Klebsiella pneumoniae; Klebsiella pneumoniae, Gram-Negative Bacteria, replicates 1-3) was over 45.6 µg/mL. The MIC (Msm 700084; Mycolicibacterium smegmatis, 700084, single determinations, read-out: Msm 700084 MIC) was 25 µM (≈ 22.8 µg/mL), the MIC (Msm 700084; Mycolicibacterium smegmatis, 700084, read-out: MIC Msm 700084) was 25 µM (≈ 22.8 µg/mL) and the “Supplementary Figure 2 dose-response value, replicating H37Rv cells” value ([1]; Conc. 0.0488281 µM) was 96.6607 and 85.0023 and 97.6783. The “Supplementary Figure 2 dose-response value, replicating H37Rv cells” value ([1]; Conc. 0.0976562 µM) was 91.646 and 99.7213 and 83.381, the “Supplementary Figure 2 dose-response value, replicating H37Rv cells” value ([1]; Conc. 0.195312 µM) was 93.9637 and 88.7594 and 93.2053 and the “Supplementary Figure 2 dose-response value, replicating H37Rv cells” value ([1]; Conc. 0.390625 µM) was 95.6392 and 103.405 and 93.9985. The “Supplementary Figure 2 dose-response value, replicating H37Rv cells” value ([1]; Conc. 0.78125 µM) was 94.5519 and 83.8686 and 95.6043, the “Supplementary Figure 2 dose-response value, replicating H37Rv cells” value ([1]; Conc. 1.5625 µM) was 94.1959 and 100.812 and 95.4766 and the “Supplementary Figure 2 dose-response value, replicating H37Rv cells” value ([1]; Conc. 3.125 µM) was 91.4989 and 87.2697 and 84.1472. For the same compound, the “Supplementary Figure 2 dose-response value, replicating H37Rv cells” value ([1]; Conc. 6.25 µM) was 90.8682 and 96.9509 and 92.2612, the “Supplementary Figure 2 dose-response value, replicating H37Rv cells” value ([1]; Conc. 25 µM) was 58.5243 and 57.8085 and 53.4206 and the “Supplementary Figure 2 dose-response value, replicating H37Rv cells” value ([1]; Conc. 50 µM) was 10.7146 and 27.4379 and 10.7068. For the same compound, the “Supplementary Figure 2 dose-response value, replicating H37Rv cells” value ([1]; Conc. 100 µM) was 10.7533 and 7.29 and 10.5908, the ClpC1 peak area ([2]; 100 µM, Figure 5c, well replicates of 3 experiments) was 412581 and 373241 and 483939 and 462615 and 61275.5 and 294306 and 484139 and 455205 and 481589 and the “intracellular degradation of ClpC1” value ([2]; Msm #607, 24 h, result in words) was “did not induce degradation of ClpC1”. The “MIC Mtb # 11291” value (Mtb # 11291) was 0.36 µg/mL (≈ 0.394 µM), the MIC (Mtb # 11291; read-out: MIC Mtb # 11291) was 0.39 µM (≈ 0.356 µg/mL) and the DC50 ([3]; Measurement 1-4, read-out: DC50, single measurements) was over 100 µM. The DC50 [3, 7] was over 100 µM, the MBC (Mtb H37Rv; read-out: MBC (from Set 3) Mtb H37Rv) was 12.5 µM and 11.4 µg/mL and the MBC (Mtb H37Rv; individual example, read-out: MBC Mtb H37Rv) was 12.5 µM and 11.4 µg/mL. For the same compound, the “% Response” value ([4]; 0.4 µM) was 107.165% and 105.713% and 105.534% and 109.793% and 112.635% and 106.598% and 107.262% and 106.323% and 113.228%, the “% Response” value ([4]; 33.3 µM) was 86.4131% and 86.1435% and 98.0091% and 93.8962% and 86.1584% and 100.044% and 99.6955% and 103.875% and 103.346% and the “% Response” value ([4]; 100.0 µM) was 86.569% and 107.836% and 89.4261% and 92.9238% and 99.5573% and 96.5131% and 88.7968% and 92.196% and 104.007%. For the same compound, the DC50 ([4]; Measurement 1-6, read-out: DC50, single measurements) was over 100 µM, the DC50 [4, 7] was over 100 µM and the “degradation of the His6-tagged ClpC1-NTD substrate” value ([4]; cell-free, result in words) was “did not cause any degradation”. The “CACO permeability PEBA” value (Caco-2 monolayers; basolateral to apical) was 14 ×10⁻⁶ cm/s, the “Caco-2 Int. Perm” value (Caco-2 monolayers; mean value of P(A−B) and P(B−A)) was 7.1 10-6 cm s-1 and the Papp B→A (in vitro; Caco-2, CACO permeability PEBA, basolateral to apical) was 19 ×10⁻⁶ cm/s. For the same compound, the Papp A→B (in vitro; Caco-2, Caco-2 permeability P (A-B), apical to basolateral) was under 0.1 ×10⁻⁶ cm/s, the “Microsomal Stability Mouse QH” value ([5]; Mouse) was over 88.400% and the “Microsomal Stability Mice” value ([5]; clearance in microsomes) was over 88 %Qh. For the same compound, the MIC (Enterobacter cloacae; Enterobacter cloacae, Gram negative, n = 3 well replicates) was over 50 µM, the MIC (Enterobacter cloacae; Enterobacter cloacae, Gram-Negative Bacteria, replicates 1-3) was over 45.6 µg/mL and the MIC (Enterobacter cloacae; [6]) was over 50 µM. The MIC (Staphylococcus aureus; Gram-Positive Bacteria, replicates 1-3) was over 50 µM, the MIC (Staphylococcus aureus; Staphylococcus aureus, Gram positive, n = 3 well replicates) was over 50 µM and the MIC (Staphylococcus aureus; Staphylococcus aureus, Gram-Positive Bacteria, replicates 1-3) was over 45.6 µg/mL.

— article PMC10914731, “Homo-BacPROTAC-induced degradation of ClpC1 as a strategy against drug-resistant mycobacteria” (Nature Communications, 2024)
